Results taken from patent publication US9113629B2, “4-amino-6-(4-substituted-phenyl)-picolinates and 6-amino-2-(4-substituted-phenyl)-pyrimidine-4-carboxylates and their use as herbicides” (DOW AGROSCIENCES LLC, priority 2013, dated 2015).
Like-named read-outs stand apart in the source and are kept apart here.

Tests used:
[1] = test system: Key Broadleaf Weed and Crop Species; assay: Post-emergent Test II herbicidal activity (Table 5); assay type: in vivo; details: post-emergence, 336 h, post-emergent, 14 days after application; for pest or weed control at 70 g/ha: 70 g ai/ha; for pest or weed control at 140 g/ha: 140 g ai/ha
Procedure, shortened: (§1)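 Compounds, dissolved in 97:3 acetone/DMSO and diluted into an aqueous carrier containing crop oil concentrate and Triton X-155, are applied over the top of young plants at 187 L/ha. Injury is scored visually at 14 d, 0% meaning no effect and 100% complete kill.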

[2] = test system: Key Grass and Sedge Weeds as well as Grass Crops; assay: Post-emergent Test II herbicidal activity (Table 6); assay type: in vivo; details: post-emergence, 336 h; for pest or weed control at 70 g/ha: application rate 70 g ai/ha; for pest or weed control at 140 g/ha: application rate 140 g ai/ha
Procedure, shortened: as §1

[3] = ABUTH: velvetleaf (Abutilon theophrasti), read-out: Visual Growth Reduction (%) 14 Days After Application ABUTH
[4] = AMARE: redroot pigweed (Amaranthus retroflexus), read-out: Visual Growth Reduction (%) 14 Days After Application AMARE
[5] = BRSNN: oilseed-rape, canola (Brassica napus), read-out: Visual Growth Reduction (%) 14 Days After Application BRSNN
[6] = CHEAL: lambsquarters (Chenopodium album), read-out: Visual Growth Reduction (%) 14 Days After Application CHEAL
[7] = EPHHL: wild poinsettia (Euphorbia heterophylla), read-out: Visual Growth Reduction (%) 14 Days After Application EPHHL
[8] = HELAN: sunflower (Helianthus annuus), read-out: Visual Growth Reduction (%) 14 Days After Application HELAN
[9] = VIOTR: wild pansy (Viola tricolor), read-out: Visual Growth Reduction (%) 14 Days After Application VIOTR
[10] = Triticum aestivum, TRZSS (wheat), read-out: Visual Growth Reduction (%) 14 Days After Application, TRZSS
[11] = CYPES: yellow nutsedge (Cyperus esculentus), read-out: Visual Growth Reduction (%) 14 Days After Application, CYPES
[12] = DIGSA: crabgrass (Digitaria sanguinalis), read-out: Visual Growth Reduction (%) 14 Days After Application, DIGSA
[13] = ECHCG: barnyardgrass (Echinochloa crus-galli), read-out: Visual Growth Reduction (%) 14 Days After Application, ECHCG
[14] = ORYSA: rice (Oryza sativa), read-out: Visual Growth Reduction (%) 14 Days After Application, ORYSA
[15] = SETFA: giant foxtail (Setaria faberi), read-out: Visual Growth Reduction (%) 14 Days After Application, SETFA
[16] = SORVU: grain sorghum (Sorghum vulgare), read-out: Visual Growth Reduction (%) 14 Days After Application, SORVU
[17] = ZEAMX: maize, corn (Zea mays), read-out: Visual Growth Reduction (%) 14 Days After Application, ZEAMX

COC(=O)c1nc(-c2cc(F)c(Br)cc2F)nc(N)c1OC [Compound 2]
pest or weed control at 70 g/ha [1, 3]: 95 to 100%
pest or weed control at 140 g/ha [1, 3]: 95 to 100%
pest or weed control at 70 g/ha [1, 4]: 85 to 94%
pest or weed control at 140 g/ha [1, 4]: 85 to 94%
pest or weed control at 70 g/ha [1, 5]: 95 to 100%
pest or weed control at 140 g/ha [1, 5]: 95 to 100%
pest or weed control at 70 g/ha [1, 6]: 95 to 100%
pest or weed control at 140 g/ha [1, 6]: 95 to 100%
pest or weed control at 70 g/ha [1, 7]: 95 to 100%
pest or weed control at 140 g/ha [1, 7]: 95 to 100%
pest or weed control at 70 g/ha [1, 8]: 95 to 100%
pest or weed control at 140 g/ha [1, 8]: 95 to 100%
pest or weed control at 70 g/ha [1, 9]: 30 to 44%
pest or weed control at 140 g/ha [1, 9]: 95 to 100%
pest or weed control at 70 g/ha [2, 10]: 45 to 59%
pest or weed control at 140 g/ha [2, 10]: 45 to 59%
pest or weed control at 70 g/ha [2, 11]: 60 to 74%
pest or weed control at 140 g/ha [2, 11]: 60 to 74%
pest or weed control at 140 g/ha [2, 12]: 60 to 74%
pest or weed control at 70 g/ha [2, 13]: 60 to 74%
pest or weed control at 140 g/ha [2, 13]: 60 to 74%
pest or weed control at 70 g/ha [2, 14]: 0 to 29%
pest or weed control at 140 g/ha [2, 14]: 0 to 29%
pest or weed control at 70 g/ha [2, 15]: 45 to 59%
pest or weed control at 140 g/ha [2, 15]: 60 to 74%
pest or weed control at 70 g/ha [2, 16]: 30 to 44%
pest or weed control at 140 g/ha [2, 16]: 60 to 74%
pest or weed control at 70 g/ha [2, 17]: 75 to 84%
pest or weed control at 140 g/ha [2, 17]: 75 to 84%

Nc1cc(-c2cc(F)c(Br)cc2F)nc(C(=O)O)c1Cl [Compound 3]
pest or weed control at 70 g/ha [1, 3]: 95 to 100%
pest or weed control at 140 g/ha [1, 3]: 95 to 100%
pest or weed control at 70 g/ha [1, 4]: 95 to 100%
pest or weed control at 140 g/ha [1, 4]: 95 to 100%
pest or weed control at 70 g/ha [1, 5]: 85 to 94%
pest or weed control at 140 g/ha [1, 5]: 95 to 100%
pest or weed control at 70 g/ha [1, 6]: 95 to 100%
pest or weed control at 140 g/ha [1, 6]: 95 to 100%
pest or weed control at 70 g/ha [1, 7]: 95 to 100%
pest or weed control at 140 g/ha [1, 7]: 95 to 100%
pest or weed control at 70 g/ha [1, 8]: 85 to 94%
pest or weed control at 140 g/ha [1, 8]: 85 to 94%
pest or weed control at 70 g/ha [1, 9]: 95 to 100%
pest or weed control at 140 g/ha [1, 9]: 95 to 100%
pest or weed control at 70 g/ha [2, 10]: 60 to 74%
pest or weed control at 140 g/ha [2, 10]: 60 to 74%
pest or weed control at 70 g/ha [2, 11]: 95 to 100%
pest or weed control at 140 g/ha [2, 11]: 95 to 100%
pest or weed control at 70 g/ha [2, 12]: 75 to 84%
pest or weed control at 140 g/ha [2, 12]: 85 to 94%
pest or weed control at 70 g/ha [2, 13]: 85 to 94%
pest or weed control at 140 g/ha [2, 13]: 85 to 94%
pest or weed control at 70 g/ha [2, 14]: 30 to 44%
pest or weed control at 140 g/ha [2, 14]: 45 to 59%
pest or weed control at 70 g/ha [2, 15]: 95 to 100%
pest or weed control at 140 g/ha [2, 15]: 95 to 100%
pest or weed control at 70 g/ha [2, 16]: 85 to 94%
pest or weed control at 140 g/ha [2, 16]: 85 to 94%
pest or weed control at 70 g/ha [2, 17]: 85 to 94%
pest or weed control at 140 g/ha [2, 17]: 85 to 94%
